Consider 25 compounds from ChEMBL document CHEMBL5143658, “Synthesis and biological evaluation of imidamide analogs as selective anti-trypanosomal agents” (Bioorg Med Chem, 2022).

Data set [1] can be described thus: Selectivity index, ratio of IC50 for cytotoxicity against mouse RAW264.7 cells to IC50 for antitrypanosomal activity against blood stream form of Trypanosoma brucei Lister 427. Type of data set: toxicity, cell-based. The conditions noted are these: read-out: Ratio IC50.
The nature of data set [2]: Cytotoxicity against HEK293 cells assessed as inhibition of cell growth incubated for 48 hrs by MTT assay. It is filed as toxicity, cell-based. The conditions noted are these: human. A general note: Formazan colour is commonly taken as a measure of viable cells.
The nature of data set [3]: Selectivity index, ratio of IC50 for cytotoxicity against HEK293 cells to IC50 for antitrypanosomal activity against blood stream form of Trypanosoma brucei Lister 427. Type of data set: toxicity, cell-based. The conditions noted are these: human, read-out: Ratio IC50.
For data set [4], the system named is Trypanosoma brucei. Kind of data set: Antitrypanosomal activity against blood stream form of Trypanosoma brucei Lister 427 assessed as inhibition of parasite growth incubated for 48 hrs by MTS assay. It is filed as functional, organism-based. The conditions noted are these: Lister 427, 48 h.
Data set [5] in a line: Cytotoxicity against mouse RAW264.7 cells assessed as inhibition of cell growth incubated for 48 hrs by MTT assay. It is filed as toxicity, cell-based.
For data set [6], the system named is Trypanosoma brucei. Kind of data set: Inhibition of tubulin polymerization in blood stream form of Trypanosoma brucei Lister 427 assessed as reduction in polymerized tubulin level incubated for 12 hrs by Western blot analysis. As to conditions: dose 200-1000 nM. Background: Immunoblotting shows a protein as a band on a membrane.

pIC50: −log10 of the molar value. Calls of active or inactive are those of the source. The calls are words filed in the database; no cut-off is given here. Where only a bound is given, the exact number is not on record here.

A word on the IC50: it is the midpoint of a concentration-inhibition curve. The pIC50 is the negative decadic logarithm of the IC50, by convention in mol/L.

`CCCCCCOc1cc(NC(=O)c2ccc3c(c2)OCO3)ccc1NC(=N)N`: the results for the selectivity ratio in data set [1] and in data set [3] were 9.2 and below 7.7, respectively. Moreover, the half-inhibitory concentration (IC50) at 48 h came to 385 µM in data set [2] and 460 µM in data set [5]. Also, in the data set with Trypanosoma brucei [4], the negative logarithm of the IC50 (pIC50) is below 4.30.
As for `CCCCCCOc1cc(NC(=O)c2ccc(OC)cc2)ccc1NC(=N)N`, the selectivity ratio in data set [1] came out at 5.17. The concentration for half-maximal inhibition (IC50) at 48 h is above 500 µM in data set [2] and 259 µM in data set [5]. For the same compound, the pIC50 in the data set on Trypanosoma brucei [4] is below 4.30.
For the compound `N=C(N)Nc1ccc(NC(=O)c2ccc3c(c2)OCO3)cc1OCc1cccc(C(F)(F)F)c1`, the selectivity ratio in data set [1] stood at 2.99; in data set [3], 9.3. Also, the half-maximal inhibitory concentration (IC50) at 48 h in data set [2] worked out at 313 µM; in data set [5] it was 101 µM. In addition, the pIC50 with Trypanosoma brucei [4] is 4.47.
For `CN(c1ccc(NC(=O)c2cccc(C(=N)N)c2)cc1OCc1ccc(C(F)(F)F)cc1)S(=O)(=O)C(F)(F)F`, in data set [1], the selectivity ratio was 10. Also, the IC50 at 48 h in data set [2] and in data set [5] was above 500 µM throughout. In addition, the negative-log IC50 (pIC50) in the data set with Trypanosoma brucei [4] was below 4.30.
Regarding `CN(c1ccc(NC(=O)c2cccc(C(=N)N)c2)cc1OCc1cccc(C(F)(F)F)c1)S(=O)(=O)Cc1ccccc1`, the selectivity ratio in data set [1] is 32.6; in data set [3], above 32.6. Further, the half-maximal inhibitory concentration (IC50) at 48 h in data set [2] and in data set [5] was above 500 µM in each case. Further, the pIC50 in the data set with Trypanosoma brucei [4] was 4.81.
On to `N=C(N)Nc1ccc(NC(=O)c2cc(C(F)(F)F)cc(C(F)(F)F)c2)cc1OCc1ccccc1C(F)(F)F`, for which the values for the selectivity ratio in data set [1] and in data set [3] were 10.7 and above 11.1, respectively. The IC50 at 48 h in data set [2] is above 500 µM; in data set [5], 481 µM. Besides, the pIC50 in the data set on Trypanosoma brucei [4] is 4.35.
The matching figures for `CN(c1ccc(NC(=O)c2ccc(C(=N)N)cc2)cc1OCc1ccc(C(F)(F)F)cc1)S(=O)(=O)Cc1ccccc1`: 17.6, above 17.6, above 500 µM, above 500 µM and 4.55.
For `CN(c1ccc(NC(=O)c2ccc(C(=N)N)cc2)cc1OCc1ccc(C(F)(F)F)cc1)S(=O)(=O)C(F)(F)F`, the selectivity ratio in data set [1] turned out to be 10. Besides, the IC50 at 48 h in data set [2] and in data set [5] was above 500 µM in each case. Moreover, the negative-log IC50 (pIC50) in the data set on Trypanosoma brucei [4] is below 4.30.
On to `N=C(N)Nc1ccc(NC(=O)c2cc(C(F)(F)F)cc(C(F)(F)F)c2)cc1OCc1ccc(C(F)(F)F)cc1`, for which the figures for the selectivity ratio in data set [1] and in data set [3] were 29.6 and 24.6, respectively. In addition, the IC50 at 48 h in data set [2] is 416 µM; in data set [5], above 500 µM. Besides, in the data set on Trypanosoma brucei [4], the pIC50 was 4.77.
The matching figures for `CCS(=O)(=O)N(C)c1ccc(NC(=O)c2cccc(C(=N)N)c2)cc1OCc1ccc(C(=N)N)cc1`: 847, 722, 426 µM, above 500 µM and 6.23.
Take `COc1ccc(C(=O)Nc2ccc(NC(=N)N)c(OCc3cccc(C(F)(F)F)c3)c2)cc1`: the selectivity ratio in data set [1] is 3.71; in data set [3] it was 9.58. The IC50 at 48 h was 263 µM in data set [2] and 102 µM in data set [5]. The pIC50 in the data set on Trypanosoma brucei [4] was 4.56.
Take `COc1ccc(C(=O)Nc2ccc(NC(=N)N)c(OCc3cc(C)ccc3C)c2)cc1`: the selectivity ratio in data set [1] was 10.4; in data set [3], above 10.4. Also, the concentration for half-maximal inhibition (IC50) at 48 h in data set [2] and in data set [5] was above 500 µM in each case. Further, the negative logarithm of the IC50 (pIC50) with Trypanosoma brucei [4] is 4.32.
Consider `N=C(N)Nc1ccc(NC(=O)c2ccc3c(c2)OCO3)cc1OCc1ccc(C(F)(F)F)cc1`, for which the selectivity ratio is 0.54 in data set [1] and below 6.87 in data set [3]. The results for the IC50 at 48 h in data set [2] and in data set [5] were 344 µM and 27.2 µM, respectively. Also, in the data set on Trypanosoma brucei [4], the negative logarithm of the IC50 (pIC50) was below 4.30.
The matching figures for `COc1ccc(OC)c(COc2cc(NC(=O)c3cc(C(F)(F)F)cc(C(F)(F)F)c3)ccc2NC(=N)N)c1`: 2.45, below 6.13, 307 µM, 123 µM and below 4.30.
As to `Cc1ccc(C)c(COc2cc(NC(=O)c3ccc(Cl)c(Cl)c3)ccc2NC(=N)N)c1`, the results for the selectivity ratio in data set [1] and in data set [3] were 18.1 and above 18.1, respectively. Further, the half-maximal inhibitory concentration (IC50) at 48 h in data set [2] and in data set [5] was above 500 µM each time. For the same compound, in the data set on Trypanosoma brucei [4], the negative-log IC50 (pIC50) was 4.56.
Regarding `N=C(N)Nc1ccc(NC(=O)c2ccc(Cl)c(Cl)c2)cc1OCc1ccccc1C(F)(F)F`, the selectivity ratio in data set [1] is 12.8; in data set [3] it was above 32.8. The IC50 at 48 h in data set [2] was above 500 µM; in data set [5], 196 µM. Further, the negative-log IC50 (pIC50) in the data set on Trypanosoma brucei [4] is 4.82.
The matching figures for `Cc1ccc(C(F)(F)F)c(COc2cc(NC(=O)c3cccc(C(=N)N)c3)ccc2N(C)S(=O)(=O)C(F)(F)F)c1`: 3.9, 114, 25 µM, 0.86 µM and 6.66.
Regarding `CN(c1ccc(NC(=O)c2cccc(C(=N)N)c2)cc1OCc1ccc(C(=N)N)cc1)S(=O)(=O)Cc1ccccc1`, the selectivity ratio in data set [1] came out at 50000. Besides, the inhibition entry in the data set with Trypanosoma brucei [6] was “Active”. The IC50 at 48 h in data set [5] was above 500 µM.
Take `COc1ccc(OC)c(COc2cc(NC(=O)c3ccc4c(c3)OCO4)ccc2NC(=N)N)c1`: in data set [1], the selectivity ratio turned out to be 10. Moreover, the IC50 at 48 h in data set [2] and in data set [5] was above 500 µM throughout. For the same compound, in the data set on Trypanosoma brucei [4], the pIC50 is below 4.30.
As for `CN(c1ccc(NC(=O)c2cccc(C(=N)N)c2)cc1OCc1ccc(C(F)(F)F)cc1)S(=O)(=O)Cc1ccccc1`, the selectivity ratio in data set [1] was 36.3; in data set [3], above 36.3. The IC50 at 48 h in data set [2] and in data set [5] was above 500 µM in each case. Besides, the negative logarithm of the IC50 (pIC50) with Trypanosoma brucei [4] is 4.86.
For the compound `Cc1ccc(C)c(COc2cc(NC(=O)c3cc(C(F)(F)F)cc(C(F)(F)F)c3)ccc2NC(=N)N)c1`, the values for the selectivity ratio in data set [1] and in data set [3] were 23.8 and above 23.8, respectively. For the same compound, the IC50 at 48 h in data set [2] and in data set [5] was above 500 µM each time. Further, the pIC50 in the data set on Trypanosoma brucei [4] is 4.68.
For the compound `N=C(N)Nc1ccc(NC(=O)c2ccc3c(c2)OCO3)cc1OCc1ccccc1C(F)(F)F`, the selectivity ratio is 10 in data set [1] and below 9 in data set [3]. Also, the IC50 at 48 h in data set [2] is 450 µM; in data set [5], above 500 µM. In addition, the pIC50 with Trypanosoma brucei [4] was below 4.30.
For `N=C(N)Nc1ccc(NC(=O)c2ccc(Cl)c(Cl)c2)cc1OCc1ccc(C(F)(F)F)cc1`, in data set [1], the selectivity ratio worked out at 10. Besides, the IC50 at 48 h in data set [2] and in data set [5] was above 500 µM each time. Moreover, the pIC50 in the data set on Trypanosoma brucei [4] is below 4.30.
For the compound `N=C(N)Nc1ccc(NC(=O)c2ccc(C(F)(F)F)cc2C(F)(F)F)cc1OCc1ccc(C(F)(F)F)cc1`, the figures for the selectivity ratio in data set [1] and in data set [3] were 27.5 and 15.7, respectively. For the same compound, the half-inhibitory concentration (IC50) at 48 h in data set [2] is 286 µM; in data set [5], above 500 µM. Further, the pIC50 with Trypanosoma brucei [4] is 4.74.
As for `COc1ccc(C(=O)Nc2ccc(NC(=N)N)c(OCc3cc(OC)ccc3OC)c2)cc1`, the figures for the selectivity ratio in data set [1] and in data set [3] were 211 and above 556, respectively. Moreover, the IC50 at 48 h in data set [2] is above 500 µM; in data set [5], 190 µM. In addition, in the data set with Trypanosoma brucei [4], the negative-log IC50 (pIC50) was 6.05.
